Measurements as given in patent US4075206A, “Substituted pyrroloquinoxalinones and diones” (Eli Lilly and Company, priority 1977, dated 1978).

What was measured:
[1] = system: erythema produced by an ultra-violet light source on guinea pig skin; experiment: Anti-inflammatory: block of UV-light-induced erythema on guinea pig skin (method of Windner et al.); type: in vivo, albino guinea pigs; conditions: oral; for ED50: Cavia porcellus, dose producing 50 percent inhibition of the erythemic response, groups of four guinea pigs; for Inhibition at 50 mg/kg dose: percent inhibition of erythema at 50 mg/kg where an ED50 was not determined
Experimental: The compounds of this invention are anti-inflammatory and anti-thrombotic agents. […] Int. Pharmacodyn, 116, 261 (1958). In this procedure, albino quinea pigs weighing 225- 300 gms. are shaved on the back and chemically depilated 18 to 20 hours before initiation of the test procedures. Animals in groups of 4 are given predetermined dosages of the drug under test with one group being maintained as a control group. The drug is administered by the oral route as a suspension in 1 percent aqueous sodium carboxymethylcellulose. The control animals receive only the suspending median. After having being given the drug or suspension medium only, each group of animals is exposed to a high-intensity ultra-violet light for a predetermined period of time, the ultra-violet light being placed in contact with the depilated skin area on the animals' back. A gummed paper reinforcement is affixed to the lamp lens to provide an unexposed area of contrast for grading the light-produced erythema.
Beginning one hour after exposure and thereafter at half-hour intervals for another 1.5 hours, a trained observer grades erythema using an arbitraty scoring system based upon the degree of contrast and redness formed. […] The following scoring system is used: […]
______________________________________
Score Appearance of Exposed Area
0 No redness and no contrast
1 Slight redness with a faint
2 Slight to moderate redness
with a distinct outline
3 Marked redness with a distinct
Total scores from each treatment group of four guinea pigs are compared to the control treatment, and the percent inhibition calculated as follows: [formula]
If desired, a dose-response graph can be obtained by plotting dose versus percent inhibition, each point representing the average of one treatment group of four guinea pigs. The dose (ED50) in mg/kg cm.^2) which produced a 50 percent inhibition of the erythemic response for the particular compound tested can then be obtained, either directly or by extrapolation. Table I below summarizes the results obtained from testing representative compounds of the invention by the foregoing method.

[2] = system: collagen-induced platelet aggregation; experiment: Platelet aggregation test: collagen-induced platelet aggregation after oral dosing (method of Hermann et al.); type: in vivo, guinea pigs; conditions: Cavia porcellus, 1 h, 2 doses, time zero and 2 hours later, blood 60 minutes after last dose, active = about 50% inhibition of collagen-induced aggregation, N.A. = not active at 100 mg/kg × 2, read-out: P.A. (lowest active dose in the platelet aggregation test)
Experimental: Certain of the compounds of this invention are also platelet aggregation inhibitors and the results of testing for this activity are also included in Table I. The platelet aggregation test used involves the effect of a drug upon collagen-induced platelet aggregation using the method of Hermann et al., Proc. Soc. Exp. Biol. Med. 136, 548 (1972). According to this procedure, 300- 400 g. guinea pigs are used and the compound is administered by the oral route in 2 doses, at time zero and again 2 hours later, at a series of graded dose levels to groups of 4 pigs each. One group is maintained as a control group. Blood is removed by heart puncture 60 minutes after the last dose, and a platelet-rich plasma prepared therefrom. A stock collagen solution is prepared by solubilizing bovine Achilles tendon with acetic acid. The stock solution contains 0.25 percent collagen, has a pH of 2.8 and is kept under refrigeration. Prior to use, 0.4 ml. of 1M aqueous sodium hydroxide is added to a 1 ml. aliquot of the stock solution, followed by further dilutions with saline (1:2 1:4, 1:8, 1:16, 1:32, etc.) A standard collagen challenge was used, 0.05 ml. of 1:45 dilution, to induce platelet aggregation and the aggregation response of the drugged guinea pigs was compared to that of the controls to determine inhibition of aggregation. The lowest active dose in mg./kg. × 2 is then determined, "active" being defined as giving about 50% inhibition of collagen-induced aggregation. (Activity was determined by computor printout with significance at the 95 percent confidence level being attained at about the 50 percent inhibition level). In Table 1, column 1 gives the name of the compound, column 2, the ED50 calculated as set forth above and column 3, the percent inhibition at a 50 mg/kg dose level where an ED50 was not determined and column 4, the lowest active dose in the platelet aggregation test. N. A. indicates "not active" at 100 mg/kg × 2 in this latter test.

Row | SMILES | ED50 [1] [mg/kg] | minimal effective dose [2] [mg/kg] | Inhibition at 50 mg/kg dose [1] [%]
1 | CC1C(=O)Nc2cccc3c2N1C(=O)C3c1ccccc1 (centres unmarked) [6-phenyl-3-methyl-1H-pyrrolo 1,2,3-de]quinoxalin-2,5(3H,6H)-dione] | 2.5 | 1.56 | –
2 | CN1C(=O)CN2C(=O)C(c3ccccc3)c3cccc1c32 (centres unmarked) [1-Methyl-6-phenyl-1H-pyrrolo 1,2,3-de]quinoxalin-2,5(3H,6H)-dione] | 4.4 | 3.12 | –
3 | Cc1cc2c3c(c1)C(c1ccccc1)C(=O)N3CC(=O)N2 (centres unmarked) [6-phenyl-8-methyl-1H-pyrrolo[1,2,3-de]quinoxalin-2,5(3H,6H)-dione] | – | 3.12 | 51
4 | O=C1C(c2ccccc2)c2cccc3c2N1CCN3 (centres unmarked) [2,3-dihydro-6-phenyl-1H-pyrrolo[1,2,3-de]quinoxalin-5(6H)-one] | 7.9 | 100 | –
5 | CCN1C(=O)CN2C(=O)C(c3ccccc3)c3cccc1c32 (centres unmarked) [1-Ethyl-6-phenyl-1H-pyrrolo[1,2,3-de]quinoxalin-2,5(3H,6H)-dione] | 33 | 100 | –
6 | O=C1CN2C(=O)C(c3ccc(F)cc3)c3cccc(c32)N1 (centres unmarked) [6-(p-fluoro)phenyl-1H-pyrrolo[1,2,3-de]quinoxalin-2,5 (3H,6H)-dione] | 7.7 | 12.5 | –
7 | O=C1CN2C(=O)C(c3ccccc3)c3cc(Cl)cc(c32)N1 (centres unmarked) [6-phenyl-8-chloro-1H-pyrrolo[1,2,3-de]quinoxalin-2,5(3H,6H)-dione] | – | 100 | 50
8 | O=C1CN2C(=O)C(c3ccccc3)c3cccc(c32)N1 (centres unmarked) [6-phenyl-1H-pyrrolo[1,2,3-de]quinoxalin-2,5(3H,6H)-dione] | 0.9 | 1.56 | –
9 | COc1cc2c3c(c1)C(c1ccccc1)C(=O)N3CC(=O)N2 (centres unmarked) [6-phenyl-8-methoxy-1H-pyrrolo[1,2,3-de]quinoxalin-2,5(3H,6H)-dione] | 45 | 6.25 | –
10 | O=C1CN2C(=O)C(c3ccc(Cl)cc3)c3cccc(c32)N1 (centres unmarked) [6-(4-chlorophenyl)-1H-pyrrolo[1,2,3-de]-quinoxalin-2,5(3H,6H)-dione] | – | – | 48
11 | O=C1CCN2C(=O)C(c3ccccc3)c3cccc(c32)N1 (centres unmarked) [3,4-DIHYDRO-7-PHENYL-1H-PYRROLO[ 1,2,3-ef]-BENZO-[ f]DIAZEPINE-2,6(1H,7H)-DIONE] | 12 | 50 | –
12 | CCC1C(=O)Nc2cccc3c2N1C(=O)C3c1ccccc1 (centres unmarked) [6-phenyl-3-ethyl-1H-pyrrolo[1,2,3-de]quinoxalin-2,5(3H,6H)-dione] | 1 | 50 | –
13 | O=C1CN2C(=O)C(c3ccccc3)c3c2c(cc2ccccc32)N1 (centres unmarked) [6-phenyl-1H-benzo[g]pyrrolo[1,2,3-de]quinoxalin-2,5(3H,6H)-dione] | – | – | 42
14 | O=C1CN2C(=O)C(c3ccccc3)(c3ccccc3)c3cccc(c32)N1 [6,6-diphenyl-1H-pyrrolo-[1,2,3-de]quinoxalin-2,5 (3H,6H)-dione] | 36 | – | –
15 | CCCN1C(=O)CN2C(=O)C(c3ccccc3)c3cccc1c32 (centres unmarked) [1-n-Propyl-6-phenyl-1H-pyrrolo[1,2,3-de]quinoxalin-2,5(3H,6H)-dione] | 47.5 | – | –
